Measured values from patent publication US20050060772A1, “Regulation of ethylene sensitivity during leaf and flower abscission” (priority 2001, published 2005).
“Also recorded” adds a separate entry of the source.

Legend:
[1] = system: transgenic tomato flowers (EIN2 over-expression / co-suppression); conditions: transgenic flowers treated with ethylene (FIG. 1: 10 ppm, 16 hrs)
Description: (§1) Flower clusters were cut from the plant, placed in a vial of water, and treated with 10 ppm ethylene for 16 hrs.
(§2) Preliminary work was conducted in tomato to test the efficacy of these approaches.

wild-type tomato flowers = conditions: wild-type flowers treated with ethylene (FIG. 1: 10 ppm, 16 hrs)
Description: as §1, §2

TCTR1 antisense plants = assay: Inducible leaf abscission in TCTR1 antisense tomato plants; conditions: for rate of leaf abscission compared with EIN3 over-expressing plants: CTR1/TCTR1 antisense plants; for induction of leaf abscission: TCTR1 antisense under the three inducible promoters

C=C [ethylene]
time flowers remained attached to the pedicel after treatment [1]: at least 5 days | time to flower abscission after treatment (wild-type tomato flowers): 24 h

CCO [ethanol]
rate of leaf abscission compared with EIN3 over-expressing plants (TCTR1 antisense plants): less rapid; also recorded: not as rapid | induction of leaf abscission (TCTR1 antisense plants): induced leaf abscission

CC(C)CC[C@@H](O)[C@](C)(O)[C@H]1CC[C@@]2(O)C3=CC(=O)[C@]4(O)C[C@@H](O)[C@@H](O)C[C@]4(C)[C@H]3[C@H](O)C[C@]12C [muristeroneA]
rate of leaf abscission compared with EIN3 over-expressing plants (TCTR1 antisense plants): less rapid; also recorded: not as rapid | induction of leaf abscission (TCTR1 antisense plants): induced leaf abscission
